Series [1] has as its system A549 (non-small cell lung) cells. The series can be described thus: Growth inhibition assay (NCI protocol), A549. The class given is cell-based, human. The settings on record: Homo sapiens, A549; 48 h exposure. From the text: (§1) We studied the antiproliferative activity of α,β-unsaturated ketones (2 and 6) and steroidal pyrimidines (3 and 7) against human cell lines following the guidelines of the National Cancer Institute. For the tests we selected five human solid tumor cell lines from diverse origins and one human fibroblast cell line as a model of non-tumor cells. These cell lines were chosen as representative of drug sensitive (A549, HBL-100, and HeLa) and drug resistant (T-47D and WiDr) monolayer cultures based on previous studies. The steroidal anticancer drugs abiraterone and galeterone were also tested for comparison purposes. […] This is a relevant finding, since our compounds are non-toxic to healthy cells, whilst the steroidal anticancer drugs inhibit the growth of fibroblasts at GI50 values as low as 4.5–5 µM.
(§2) The following densities (cells per well) were used: 2500 (A549, HBL-100, HeLa and SW1573), 5000 (T-47D, WiDr and SW1573/PGP), and 7000 (BJ-hTERT). […] Abiraterone and galeterone were used as reference drugs for antiproliferative tests, verapamil was used as a P-gp transport inhibitor in SW1573/Pgp experiments, and their stock solutions were prepared in DMSO at 40 mM. Paclitaxel and vinblastine were used as positive controls in SW1573/Pgp experiments and were initially dissolved in DMSO at 4 mM. For each test compound, the cells were exposed to serial decimal dilutions in the range of 0.001–100 μM for a period of 48 h. Cell culture medium containing verapamil was prepared by adding the final concentration of verapamil of 10 μM. For each product GI50 values were calculated according to the NCI formulas.

Another series relates to HBL-100 (breast) cells. In words: Growth inhibition assay (NCI protocol), HBL-100. In kind it is cell-based, human. The settings on record: Homo sapiens, HBL-100; 48 h exposure.
Text: as §1, §2

The subject of a further series is HeLa (cervix) cells. In words: Growth inhibition assay (NCI protocol), HeLa. In kind it is cell-based, human. The settings on record: Homo sapiens, HeLa; 48 h exposure.
Text: as §1, §2

A further series concerns T-47D (breast) cells. In words: Growth inhibition assay (NCI protocol), T-47D. The conditions noted are these: Homo sapiens, T47D; 48 h exposure. The class given is cell-based, human.
Text: as §1, §2

A further series relates to WiDr (colon) cells. The series can be described thus: Growth inhibition assay (NCI protocol), WiDr. The class given is cell-based, human. The settings on record: Homo sapiens, WiDr; 48 h exposure.
Text: as §1, §2

The test system of series [2] is BJ-hTERT human fibroblast cells. The series can be described thus: Growth inhibition assay (NCI protocol), BJ-hTERT fibroblasts. The class given is cell-based. The settings on record: Homo sapiens, Fibroblast; 48 h exposure; non-tumor cells.
Text: as §1, §2

The test system of series [3] is SW1573 (non-small cell lung) cells. The series can be described thus: Growth inhibition assay, SW1573 wild type. The conditions noted are these: Homo sapiens, SW1573; 48 h, without verapamil; read-out: GI50 SW1573 w/o Verapamil. In kind it is cell-based, human. From the text:
(§3) Next, we studied if the compounds could be substrates for P-glycoprotein 1 (P-gp). P-gp is an important protein of the cell membrane that pumps xenobiotics out of cells. One of the resistance mechanisms to anticancer drugs involves the overexpression of P-gp by cancer cells, rendering these cancers multidrug resistant. Therefore, it is relevant to know whether compounds are substrates for P-gp or not. As a model to test the effect of P-gp overexpression in our compounds, we used a cell line-based assay. We selected one wild type human lung cancer cell line (SW1573) and its P-gp overexpressing variant (SW1573/PGP). In this test, cells were exposed to the compounds for 48 h in the absence or the presence of 10 µM verapamil, a well-known P-gp inhibitor [20].
(§4) The human solid tumor cell lines A549 (non-small cell lung), HBL-100 (breast), and HeLa (cervix), SW1573 (non-small cell lung), and its P-gp overexpressing variant (SW1573/Pgp), T-47D (breast), and WiDr (colon) were used in this study. These cell lines used in this study were kindly provided by Dr. Godefridus J. Peters (Cancer Center Amsterdam, Vrije Universiteit, Amsterdam, The Netherlands). BJ-hTERT human fibroblast cells were given by Dr. Raimundo Freire (Universidad de La Laguna, Canary Islands). All cells were grown in RPMI 1640 supplemented with 1 mM glutamine, 5% FBS and antibiotics. Cells were grown at 37 °C in a humidified atmosphere of 5% CO2 and maintained at low passage.
(§5) The antiproliferative activity was tested in vitro against human cancer cells using the protocol of the National Cancer Institute (NCI) of the USA16 with minor modifications. The following densities (cells per well) were used: 2500 (A549, HBL-100, HeLa and SW1573), 5000 (T-47D, WiDr and SW1573/PGP), and 7000 (BJ-hTERT). Samples for testing were dissolved initially in DMSO at 40 mM, i.e., 400 times the maximum test concentration. Abiraterone and galeterone were used as reference drugs for antiproliferative tests, verapamil was used as a P-gp transport inhibitor in SW1573/Pgp experiments, and their stock solutions were prepared in DMSO at 40 mM. Paclitaxel and vinblastine were used as positive controls in SW1573/Pgp experiments and were initially dissolved in DMSO at 4 mM. For each test compound, the cells were exposed to serial decimal dilutions in the range of 0.001–100 μM for a period of 48 h. Cell culture medium containing verapamil was prepared by adding the final concentration of verapamil of 10 μM. For each product GI50 values were calculated according to the NCI formulas.

The next series has as its system P-gp. In words: in vitro. The conditions noted are these: human.
Text: as §3, §4, §5

Another series addresses T1, P-glycoprotein 1 (P-gp) (Homo sapiens, UniProt P08183).
T1 construct: its P-gp overexpressing variant (SW1573/PGP); endogenous in cells; host or cells: SW1573 and SW1573/PGP (SW1573/Pgp) human non-small cell lung cancer cells, provided by Dr. G. J. Peters (Amsterdam)
In words: P-glycoprotein assay (SW1573/PGP vs SW1573, resistance factor). In kind it is cell-based. The settings on record: for Rf w Verapamil / Rf w/o Verapamil: ratio between GI50 values in SW1573/PGP and SW1573 cells; for Rf w Verapamil: with 10 µM verapamil; for Rf w/o Verapamil: without verapamil.
Text: as §3, §5

One may read the melting point as the temperature of the solid-liquid transition.

T1 sequence (P08183 whole entry): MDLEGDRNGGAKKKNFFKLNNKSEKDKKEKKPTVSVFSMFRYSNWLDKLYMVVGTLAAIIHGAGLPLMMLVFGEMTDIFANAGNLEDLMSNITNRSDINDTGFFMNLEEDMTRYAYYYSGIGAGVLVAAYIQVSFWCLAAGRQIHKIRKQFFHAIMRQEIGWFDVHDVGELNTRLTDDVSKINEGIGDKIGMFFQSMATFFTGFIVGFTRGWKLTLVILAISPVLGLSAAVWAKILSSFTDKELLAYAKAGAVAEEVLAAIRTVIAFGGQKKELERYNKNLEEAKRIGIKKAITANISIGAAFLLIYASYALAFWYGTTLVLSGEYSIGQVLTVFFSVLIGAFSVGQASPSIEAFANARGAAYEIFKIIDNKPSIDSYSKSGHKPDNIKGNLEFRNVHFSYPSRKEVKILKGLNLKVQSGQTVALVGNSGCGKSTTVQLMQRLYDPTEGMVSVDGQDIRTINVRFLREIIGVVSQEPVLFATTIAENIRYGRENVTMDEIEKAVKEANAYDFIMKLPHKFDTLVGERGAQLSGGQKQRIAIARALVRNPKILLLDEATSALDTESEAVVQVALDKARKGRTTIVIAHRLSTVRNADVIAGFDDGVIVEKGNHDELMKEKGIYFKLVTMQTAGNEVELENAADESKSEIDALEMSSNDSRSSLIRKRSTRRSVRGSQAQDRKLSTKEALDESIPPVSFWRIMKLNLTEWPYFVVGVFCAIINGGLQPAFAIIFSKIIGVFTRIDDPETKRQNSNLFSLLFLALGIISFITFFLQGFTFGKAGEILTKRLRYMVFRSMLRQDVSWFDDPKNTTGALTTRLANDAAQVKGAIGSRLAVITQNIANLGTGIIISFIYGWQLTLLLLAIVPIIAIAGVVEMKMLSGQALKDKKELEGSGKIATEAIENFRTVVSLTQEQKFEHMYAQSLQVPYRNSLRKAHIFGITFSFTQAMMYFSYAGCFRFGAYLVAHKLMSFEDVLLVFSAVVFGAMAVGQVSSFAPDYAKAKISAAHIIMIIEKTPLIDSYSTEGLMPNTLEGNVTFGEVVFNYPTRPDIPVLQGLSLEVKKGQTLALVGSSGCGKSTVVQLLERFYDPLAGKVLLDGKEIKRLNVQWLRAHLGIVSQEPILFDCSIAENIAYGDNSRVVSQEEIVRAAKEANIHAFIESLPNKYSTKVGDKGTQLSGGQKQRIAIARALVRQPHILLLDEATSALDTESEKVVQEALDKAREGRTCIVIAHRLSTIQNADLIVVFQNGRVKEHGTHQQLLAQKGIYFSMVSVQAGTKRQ

Take `C[C@]12CC[C@H](O)CC1=CC[C@@H]1[C@@H]2CC[C@]2(C)C(c3cccnc3)=CC[C@@H]12` [Abiraterone, abiraterone, reference compound]: the GI50 in series [1] is 95 ± 0.8 µM; with HBL-100 (breast) cells, greater than 100 µM; with HeLa (cervix) cells it was 7.9 ± 0.5 µM; in the series with T-47D (breast) cells, 24 ± 4.5 µM; with WiDr (colon) cells it was 42 ± 7.7 µM; in series [2], 4.5 ± 1 µM.

Regarding `C[C@]12CC[C@H]3[C@@H](CC=C4C[C@@H](O)CC[C@@]43C)[C@@H]1CC[C@@H]2C(=O)/C=C/c1ccccc1` [Compound 2, (E)-21-benzyliden-3β-hydroxypregn-5-en-20-one], the GI50 in series [1] is 23 ± 1.6 µM; in the series with HBL-100 (breast) cells, 19 ± 3.7 µM; with HeLa (cervix) cells, 3.3 ± 0.3 µM; in the series on T-47D (breast) cells, 9.9 ± 3.5 µM; in the series with WiDr (colon) cells, 6.3 ± 0.5 µM; in [2], greater than 100 µM. For the same compound, the GI50 in [3] was found to be 23 ± 0.2 µM. The GI50 at 48 h in the series on P-gp came out at 29 ± 5.5 µM. The “substrate for P-gp” value on P-glycoprotein 1 (P-gp) (SW1573 vs SW1573/PGP, with or without 10 µM verapamil) is “not substrates for P-gp”. Also, the “Rf w Verapamil” value at P-glycoprotein 1 (P-gp) is 1.5. The “Rf w/o Verapamil” value on P-glycoprotein 1 (P-gp) is given as 1.2.

Compound `C[C@]12CCC3C(CC=C4C[C@@H](O)CC[C@@]43C)C1CCC2C1=CC(c2ccccc2)NC(=N)N1` (stereo partly drawn) [Compound 3a, 17β-(2′-imino-1′,3′,6′-trihydro-6′-phenylpyrimidin-4′-yl)-androst-5-en-3β-ol] had a melting point of 128 °C. The same compound yielded a GI50 in [1] of 4.4 ± 1 µM. This compound also returned a GI50 in the series with HBL-100 (breast) cells of 23 ± 2.8 µM. For the same compound, in the series with HeLa (cervix) cells, the GI50 is 6.1 ± 1.2 µM. The same compound returned a GI50 in the series with T-47D (breast) cells of 8.8 ± 2.2 µM. In the series on WiDr (colon) cells, the GI50 worked out at 8.3 ± 1.1 µM. The compound also came in with a GI50 in series [2] greater than 100 µM. In addition, in [3], the GI50 stood at 6.9 ± 0.5 µM. Moreover, the GI50 at 48 h with P-gp was found to be 10 ± 4.2 µM. In addition, at P-glycoprotein 1 (P-gp), the “Rf w Verapamil” value is reported as 0.7 and the “Rf w/o Verapamil” value is on record as 1.5.

On to `C[C@]12CCC3C(CC=C4C[C@@H](O)CC[C@@]43C)C1CCC2C1=CC(c2ccccc2)NC(=O)N1` (stereo partly drawn) [Compound 3b, 17β-(1′,3′,6′-trihydro-2′-oxo-6′-phenylpyrimidin-4′-yl)-androst-5-en-3β-ol], for which the melting point was 108 to 110 °C. The compound also had a GI50 in series [1] of 11 ± 2.9 µM. Besides, the GI50 in the series with HBL-100 (breast) cells stood at 16 ± 1.3 µM. For the same compound, the GI50 with HeLa (cervix) cells was 14 ± 3.6 µM. This compound came in with a GI50 in the series with T-47D (breast) cells of 15 ± 1.3 µM. In the series on WiDr (colon) cells, this compound yielded a GI50 of 15 ± 3.5 µM. In addition, in series [2], the GI50 turned out to be 97 ± 5.9 µM. Moreover, the GI50 at 48 h in the series on P-gp came out at 34 ± 13 µM. Further, at P-glycoprotein 1 (P-gp), the “Rf w Verapamil” value is 1.6 and the “Rf w/o Verapamil” value is reported as 1.9.

`C[C@]12CCC3C(CC=C4C[C@@H](O)CC[C@@]43C)C1CCC2C1=CC(c2ccccc2)NC(=S)N1` (stereo partly drawn) [Compound 3c, 17β-(1′,3′,6′-trihydro-6′-phenyl-2′-thioxopyrimidin-4′-yl)-androst-5-en-3β-ol] returned a melting point of 208 to 210 °C. In series [1], the GI50 amounted to 7.7 ± 1 µM. For the same compound, in the series on HBL-100 (breast) cells, the GI50 came out at 45 ± 7.9 µM. Also, in the series with HeLa (cervix) cells, the GI50 came to 11 ± 1.5 µM. Moreover, in the series on T-47D (breast) cells, the GI50 was 13 ± 2.3 µM. The compound further yielded a GI50 in the series with WiDr (colon) cells of 9.2 ± 1.6 µM. The compound further displayed a GI50 in series [2] greater than 100 µM. For the same compound, the GI50 in series [3] was 12 ± 2.7 µM. For the same compound, in the series with P-gp, the GI50 at 48 h was 38 ± 6.1 µM. Also, on P-glycoprotein 1 (P-gp), the “Rf w Verapamil” value was determined as 1.8 and the “Rf w/o Verapamil” value is listed as 3.2.
